Columns and labels:
Mannheimia haemolytica = experiment: minimum inhibitory concentration (MIC)
Protocol: (§1)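 Broth microdilution MIC (Sensititre BOPO7F bovine plate, CLSI methods) of 19 antimicrobials against field isolates of P. multocida, M. haemolytica, H. somni (deep nasopharyngeal swabs) and E. coli, Enterococcus spp. (rectal swabs) from weaned dairy heifers. Incubation 16-24 h at 35 C. MIC is the lowest concentration preventing visible growth. Values with <= or > lie at the tested range limits. Trimethoprim-sulfamethoxazole is given as the trimethoprim component of a 1:19 mixture.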

Enterococcus spp. = experiment: minimum inhibitory concentration (MIC)
Protocol: as §1

COc1cc(NS(=O)(=O)c2ccc(N)cc2)nc(OC)n1 [sulfadimethoxine]
minimum inhibitory concentration [µg/mL]
Settings | Enterococcus spp. | Mannheimia haemolytica
isolate (source animal id): 2 | > 256 | –
isolate (source animal id): 8 | – | > 256
isolate (source animal id): 13 | – | > 256
isolate (source animal id): 18 | – | > 256
isolate (source animal id): 21 | – | > 256
isolate (source animal id): 25 | – | > 256
isolate (source animal id): 27 | – | > 256
isolate (source animal id): 28 | – | ≤ 256
isolate (source animal id): 30 | – | > 256
isolate (source animal id): 31 | – | ≤ 256
isolate (source animal id): 32 | – | > 256
isolate (source animal id): 34 | – | > 256
isolate (source animal id): 35 | > 256 | –
isolate (source animal id): 36 | – | > 256
isolate (source animal id): 37 | – | > 256
isolate (source animal id): 40 | – | > 256
isolate (source animal id): 41 | – | > 256
isolate (source animal id): 42 | > 256 | –
isolate (source animal id): 43 | – | > 256
isolate (source animal id): 44 | > 256 | –
isolate (source animal id): 46 | – | > 256
isolate (source animal id): 49 | – | > 256
isolate (source animal id): 50 | – | > 256
isolate (source animal id): 51 | – | > 256
isolate (source animal id): 52 | – | > 256
isolate (source animal id): 53 | – | > 256
isolate (source animal id): 55 | – | > 256
isolate (source animal id): 56 | – | > 256
isolate (source animal id): 57 | – | > 256
isolate (source animal id): 79 | > 256 | –
isolate (source animal id): 88 | > 256 | –
isolate (source animal id): 91 | > 256 | –
isolate (source animal id): 92 | > 256 | –
isolate (source animal id): 100 | – | > 256
isolate (source animal id): 103 | – | > 256
isolate (source animal id): 107 | – | > 256
isolate (source animal id): 108 | – | > 256
isolate (source animal id): 111 | > 256 | –
isolate (source animal id): 112 | – | > 256
isolate (source animal id): 113 | – | > 256
isolate (source animal id): 121 | – | > 256
isolate (source animal id): 122 | > 256 | > 256
isolate (source animal id): 123 | > 256 | > 256
isolate (source animal id): 126 | – | > 256
isolate (source animal id): 133 | > 256 | > 256
isolate (source animal id): 135 | – | > 256
isolate (source animal id): 138 | – | > 256
isolate (source animal id): 141 | – | > 256
isolate (source animal id): 142 | – | > 256
isolate (source animal id): 145 | – | > 256
isolate (source animal id): 149 | – | ≤ 256
isolate (source animal id): 151 | – | ≤ 256
isolate (source animal id): 152 | – | ≤ 256
isolate (source animal id): 154 | – | ≤ 256
isolate (source animal id): 158 | > 256 | –
isolate (source animal id): 159 | – | > 256
isolate (source animal id): 162 | – | > 256
isolate (source animal id): 168 | > 256 | –
isolate (source animal id): 169 | > 256 | –
isolate (source animal id): 170 | – | > 256
isolate (source animal id): 171 | > 256 | > 256
isolate (source animal id): 172 | – | > 256
isolate (source animal id): 173 | – | > 256
isolate (source animal id): 175 | > 256 | –
isolate (source animal id): 177 | > 256 | –
isolate (source animal id): 179 | – | > 256
isolate (source animal id): 180 | – | > 256
isolate (source animal id): 181 | > 256 | –
isolate (source animal id): 182 | > 256 | –
isolate (source animal id): 183 | > 256 | > 256
isolate (source animal id): 186 | – | > 256
isolate (source animal id): 187 | > 256 | > 256
isolate (source animal id): 188 | – | > 256
isolate (source animal id): 190 | > 256 | > 256
isolate (source animal id): 191 | – | > 256
isolate (source animal id): 192 | – | > 256
isolate (source animal id): 194 | > 256 | –
isolate (source animal id): 195 | > 256 | –
isolate (source animal id): 197 | > 256 | –
isolate (source animal id): 201 | – | > 256
isolate (source animal id): 202 | – | > 256
isolate (source animal id): 209 | – | > 256
isolate (source animal id): 211 | > 256 | ≤ 256
isolate (source animal id): 214 | > 256 | –
isolate (source animal id): 220 | – | > 256
isolate (source animal id): 221 | – | > 256
isolate (source animal id): 222 | > 256 | –
isolate (source animal id): 223 | > 256 | > 256
isolate (source animal id): 228 | > 256 | –
isolate (source animal id): 230 | > 256 | –
isolate (source animal id): 233 | – | > 256
isolate (source animal id): 235 | > 256 | –
isolate (source animal id): 236 | > 256 | –
isolate (source animal id): 237 | – | ≤ 256
isolate (source animal id): 239 | > 256 | –
isolate (source animal id): 241 | > 256 | > 256
isolate (source animal id): 244 | > 256 | –
isolate (source animal id): 246 | > 256 | –
isolate (source animal id): 247 | > 256 | –
isolate (source animal id): 250 | > 256 | –
isolate (source animal id): 252 | > 256 | > 256
isolate (source animal id): 253 | – | > 256
isolate (source animal id): 259 | – | > 256
isolate (source animal id): 260 | – | > 256
isolate (source animal id): 262 | – | > 256
isolate (source animal id): 268 | > 256 | –
isolate (source animal id): 282 | > 256 | > 256
isolate (source animal id): 285 | > 256 | –
isolate (source animal id): 287 | – | > 256
isolate (source animal id): 288 | – | > 256
isolate (source animal id): 289 | > 256 | –
isolate (source animal id): 290 | > 256 | –
isolate (source animal id): 291 | – | ≤ 256
isolate (source animal id): 293 | – | > 256
isolate (source animal id): 296 | > 256 | –
isolate (source animal id): 298 | > 256 | > 256
isolate (source animal id): 299 | – | > 256
isolate (source animal id): 300 | – | ≤ 256
isolate (source animal id): 301 | > 256 | –
isolate (source animal id): 302 | – | > 256
isolate (source animal id): 304 | – | > 256
isolate (source animal id): 306 | – | > 256
isolate (source animal id): 308 | – | ≤ 256
isolate (source animal id): 309 | – | ≤ 256
isolate (source animal id): 310 | > 256 | –
isolate (source animal id): 313 | – | > 256
isolate (source animal id): 318 | – | > 256
isolate (source animal id): 320 | > 256 | ≤ 256
isolate (source animal id): 321 | – | > 256
isolate (source animal id): 323 | – | > 256
isolate (source animal id): 324 | – | > 256
isolate (source animal id): 326 | – | > 256
isolate (source animal id): 328 | – | > 256
isolate (source animal id): 329 | – | > 256
isolate (source animal id): 331 | > 256 | –
isolate (source animal id): 333 | > 256 | > 256
isolate (source animal id): 335 | – | > 256
isolate (source animal id): 338 | – | > 256
isolate (source animal id): 341 | > 256 | –

Source: the supplement of paper PMC8612539
